Source: BigSolDB 2.1

Question: With `CC(C)(c1cc(Br)c(O)c(Br)c1)c1cc(Br)c(O)c(Br)c1` as the molecule, how does the solubility (mole fraction) (in ethanol, 298.15 K) read?
Answer: 0.0511

Question: What about the solubility (mole fraction) (in ethanol, 303.15 K) of the same molecule?
Answer: 0.0516

Question: And the solubility (mole fraction) (in ethanol, 308.15 K)?
Answer: 0.0534

Question: What about the solubility (mole fraction) (in ethanol, 313.15 K) of the same molecule?
Answer: 0.0558

Question: What about the solubility (mole fraction) (in ethanol, 318.15 K) of the same molecule?
Answer: 0.0577

Question: What about the solubility (mole fraction) (in ethanol, 323.15 K) of the same molecule?
Answer: 0.0616

Question: And the solubility (mole fraction) (in ethanol, 328.15 K)?
Answer: 0.0642

Question: And the solubility (mole fraction) (in ethanol, 333.15 K)?
Answer: 0.0693

Question: What about the solubility (mole fraction) (in ethyl acetate, 298.15 K) of the same molecule?
Answer: 0.139

Question: What about the solubility (mole fraction) (in ethyl acetate, 303.15 K) of the same molecule?
Answer: 0.139

Question: What about the solubility (mole fraction) (in ethyl acetate, 308.15 K) of the same molecule?
Answer: 0.141

Question: And the solubility (mole fraction) (in ethyl acetate, 313.15 K)?
Answer: 0.144

Question: And the solubility (mole fraction) (in ethyl acetate, 318.15 K)?
Answer: 0.147

Question: And the solubility (mole fraction) (in ethyl acetate, 323.15 K)?
Answer: 0.152

Question: And the solubility (mole fraction) (in ethyl acetate, 328.15 K)?
Answer: 0.157

Question: What about the solubility (mole fraction) (in ethyl acetate, 333.15 K) of the same molecule?
Answer: 0.161

Question: What about the solubility (mole fraction) (in isopropanol, 298.15 K) of the same molecule?
Answer: 0.0242

Question: What about the solubility (mole fraction) (in isopropanol, 303.15 K) of the same molecule?
Answer: 0.0259

Question: What about the solubility (mole fraction) (in isopropanol, 308.15 K) of the same molecule?
Answer: 0.0284

Question: What about the solubility (mole fraction) (in isopropanol, 313.15 K) of the same molecule?
Answer: 0.031

Question: What about the solubility (mole fraction) (in isopropanol, 318.15 K) of the same molecule?
Answer: 0.0343

Question: What about the solubility (mole fraction) (in isopropanol, 323.15 K) of the same molecule?
Answer: 0.0381

Question: What about the solubility (mole fraction) (in isopropanol, 328.15 K) of the same molecule?
Answer: 0.0435

Question: And the solubility (mole fraction) (in isopropanol, 333.15 K)?
Answer: 0.0484

Question: And the solubility (mole fraction) (in methanol, 298.15 K)?
Answer: 0.0499

Question: And the solubility (mole fraction) (in methanol, 303.15 K)?
Answer: 0.0511

Question: What about the solubility (mole fraction) (in methanol, 308.15 K) of the same molecule?
Answer: 0.0524

Question: What about the solubility (mole fraction) (in methanol, 313.15 K) of the same molecule?
Answer: 0.0546

Question: And the solubility (mole fraction) (in methanol, 318.15 K)?
Answer: 0.0564

Question: And the solubility (mole fraction) (in methanol, 323.15 K)?
Answer: 0.0585

Question: And the solubility (mole fraction) (in methanol, 328.15 K)?
Answer: 0.0615

Question: What about the solubility (mole fraction) (in n-butanol, 298.15 K) of the same molecule?
Answer: 0.0511

Question: What about the solubility (mole fraction) (in n-butanol, 303.15 K) of the same molecule?
Answer: 0.0522

Question: And the solubility (mole fraction) (in n-butanol, 308.15 K)?
Answer: 0.0542

Question: What about the solubility (mole fraction) (in n-butanol, 313.15 K) of the same molecule?
Answer: 0.0573

Question: What about the solubility (mole fraction) (in n-butanol, 318.15 K) of the same molecule?
Answer: 0.0602

Question: What about the solubility (mole fraction) (in n-butanol, 323.15 K) of the same molecule?
Answer: 0.0642

Question: What about the solubility (mole fraction) (in n-butanol, 328.15 K) of the same molecule?
Answer: 0.0678

Question: And the solubility (mole fraction) (in n-butanol, 333.15 K)?
Answer: 0.0717

Question: And the solubility (mole fraction) (in n-butyl acetate, 298.15 K)?
Answer: 0.142

Question: What about the solubility (mole fraction) (in n-butyl acetate, 303.15 K) of the same molecule?
Answer: 0.142

Question: What about the solubility (mole fraction) (in n-butyl acetate, 308.15 K) of the same molecule?
Answer: 0.144

Question: What about the solubility (mole fraction) (in n-butyl acetate, 313.15 K) of the same molecule?
Answer: 0.146

Question: What about the solubility (mole fraction) (in n-butyl acetate, 318.15 K) of the same molecule?
Answer: 0.148

Question: What about the solubility (mole fraction) (in n-butyl acetate, 323.15 K) of the same molecule?
Answer: 0.151

Question: What about the solubility (mole fraction) (in n-butyl acetate, 328.15 K) of the same molecule?
Answer: 0.155

Question: And the solubility (mole fraction) (in n-butyl acetate, 333.15 K)?
Answer: 0.159

Question: And the solubility (mole fraction) (in n-pentanol, 298.15 K)?
Answer: 0.0567

Question: And the solubility (mole fraction) (in n-pentanol, 303.15 K)?
Answer: 0.058

Question: And the solubility (mole fraction) (in n-pentanol, 308.15 K)?
Answer: 0.0596

Question: And the solubility (mole fraction) (in n-pentanol, 313.15 K)?
Answer: 0.0609

Question: And the solubility (mole fraction) (in n-pentanol, 318.15 K)?
Answer: 0.0634

Question: And the solubility (mole fraction) (in n-pentanol, 323.15 K)?
Answer: 0.0669

Question: What about the solubility (mole fraction) (in n-pentanol, 328.15 K) of the same molecule?
Answer: 0.0705

Question: What about the solubility (mole fraction) (in n-pentanol, 333.15 K) of the same molecule?
Answer: 0.0752

Question: And the solubility (mole fraction) (in n-propanol, 298.15 K)?
Answer: 0.0452

Question: What about the solubility (mole fraction) (in n-propanol, 303.15 K) of the same molecule?
Answer: 0.046

Question: What about the solubility (mole fraction) (in n-propanol, 308.15 K) of the same molecule?
Answer: 0.0476

Question: What about the solubility (mole fraction) (in n-propanol, 313.15 K) of the same molecule?
Answer: 0.0502

Question: What about the solubility (mole fraction) (in n-propanol, 318.15 K) of the same molecule?
Answer: 0.0522

Question: And the solubility (mole fraction) (in n-propanol, 323.15 K)?
Answer: 0.0553

Question: What about the solubility (mole fraction) (in n-propanol, 328.15 K) of the same molecule?
Answer: 0.059

Question: And the solubility (mole fraction) (in n-propanol, 333.15 K)?
Answer: 0.063

Question: And the solubility (mole fraction) (in sec-butanol, 298.15 K)?
Answer: 0.0262

Question: And the solubility (mole fraction) (in sec-butanol, 303.15 K)?
Answer: 0.0288

Question: What about the solubility (mole fraction) (in sec-butanol, 308.15 K) of the same molecule?
Answer: 0.0321

Question: And the solubility (mole fraction) (in sec-butanol, 313.15 K)?
Answer: 0.0364

Question: What about the solubility (mole fraction) (in sec-butanol, 318.15 K) of the same molecule?
Answer: 0.0399

Question: What about the solubility (mole fraction) (in sec-butanol, 323.15 K) of the same molecule?
Answer: 0.045

Question: What about the solubility (mole fraction) (in sec-butanol, 328.15 K) of the same molecule?
Answer: 0.0502

Question: What about the solubility (mole fraction) (in sec-butanol, 333.15 K) of the same molecule?
Answer: 0.056
